Test results as given in patent US7612064B2, “Sulfopyrroles” (Takeda Pharmaceutical Company Limited, priority 2003, dated 2009).

Key:
[1] = tested on: MRC5; assay: MTS proliferation assay; format: cell-based; conditions: MRC5, 72 h
Procedure: (§1) The assay is performed in 96 well tissue culture plates. […] The test compounds are added in 20 μl complete medium containing max 5% DMSO. The final compound concentrations in the assays are 10 μM, 3 μM, 1 μM and 0.3 μM, respectively. The assay plates are incubated for 72 h at culture conditions. The MTS reagent is prepared according to the manufacturer's protocol (Promega G1111). 20 μl MTS reagent are added to each well, the assay plates are quickly spun and incubated for another 3 h at culture conditions. Subsequently, the plates are shortly shacked and absorption measured with a microplate-reader at 492 nm.

[2] = tested on: HeLa; assay: MTS proliferation assay; format: cell-based, human; conditions: 72 h
Procedure: as §1

[3] = tested on: Jurkat; assay: MTS proliferation assay; format: cell-based, human; conditions: 72 h
Procedure: as §1

[4] = Hoechst 33342 nuclear staining; format: cell-based; conditions: 24 h or 48 h incubation; for Hoechst 33342 nuclear staining score, HeLa: HeLa cells; for Hoechst 33342 nuclear staining score, Jurkat: Jurkat cells;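 for all read-outs here: apoptotic nuclei scored 0 none 1 weak under 50% of cells 2 strong over 50% of cells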
Procedure: This assay is performed in 96 well tissue culture plates. Appropriate number of cells (adherent cells: 3-5*10^3, suspension cells: 8-10*10^3) are being seeded out in 80 μl complete medium. Adherent cells are incubated for 24 h for proper spreading out before addition of test compounds while suspension cells are immediately treated with test compounds after seeding out. The test compounds are added in 20 μl complete medium containing max 5% DMSO. […] […] The assay plates are then further incubated for 30 min and subsequently analyzed with a standard inverted fluorescence microscope.
The readout allows the determination of the fraction of apoptotic nuclei as well as other morphological criteria specific for apoptosis as a function of the treatment. The following scores are used: 0 relating to no activity, 1 relating to weak activity comprising less than 50% of the cells and score 2 relating to strong activity comprising more than 50% of the cells.

[5] = conc 0.1 (final concentrations in μM)
[6] = conc 0.3 (final concentrations in μM)
[7] = conc 1 (final concentrations in μM)
[8] = conc 3 (final concentrations in μM)

Row | SMILES | IC50 [1] [nM] | IC50 [2] [nM] | IC50 [3] [nM] | IC50 ([1]; Homo sapiens) [nM] | IC50 ([2]; Homo sapiens) [nM] | IC50 ([3]; Homo sapiens) [nM] | Hoechst 33342 nuclear staining score, HeLa [4, 5] | Hoechst 33342 nuclear staining score, HeLa [4, 6] | Hoechst 33342 nuclear staining score, HeLa [4, 7] | Hoechst 33342 nuclear staining score, HeLa [4, 8] | Hoechst 33342 nuclear staining score, Jurkat [4, 5] | Hoechst 33342 nuclear staining score, Jurkat [4, 6] | Hoechst 33342 nuclear staining score, Jurkat [4, 7] | Hoechst 33342 nuclear staining score, Jurkat [4, 8]
1 | COc1cc(-c2cc(CNCCCN3CCN(C)CC3)cn2S(=O)(=O)c2ccc(C)cc2)cc(OC)c1OC [Example 3] | > 1000 | > 1000 | > 1000 | – | – | – | – | – | – | – | – | – | – | –
2 | CN1CCN(CCCNCc2cc(-c3ccc4c(c3)OCO4)n(S(=O)(=O)c3cccc(Cl)c3)c2)CC1 [Example 4, 1-(m-Chlorobenzenesulfonyl)-2-(3,4-methylenedioxyphenyl)-4-(N-[3-{4-methylpiperazinyl}-propyl]-aminomethyl)-pyrrole] | > 1000 | > 1000 | > 1000 | – | – | – | – | – | – | – | – | – | – | –
3 | NC(=O)c1ccc(-c2cc(-c3ccc4c(c3)OCO4)n(S(=O)(=O)c3cccc(Cl)c3)c2)cc1 [Example 5, p-(1-[m-chlorobenzenesulfonyl]-2-[3,4-methylenedioxyphenyl]-4pyrrolyl)-benzamide] | – | – | – | > 1000 | > 1000 | > 1000 | – | – | – | – | – | – | – | –
4 | Cc1ccc(S(=O)(=O)n2cc(CNCCCN3CCN(C)CC3)cc2-c2ccc3c(c2)OCO3)cc1 [Example 12] | > 1000 | > 1000 | > 1000 | – | – | – | 0 | 0 | 0 | 0 | 0 | 0 | 0 | 0
5 | Cc1ccc(S(=O)(=O)n2cc(CNc3ccc(N4CCOCC4)cc3)cc2-c2ccc3c(c2)OCO3)cc1.Cl [Example 14] | > 1000 | > 1000 | > 1000 | – | – | – | 0 | 0 | 0 | 2 (strong activity comprising more than 50% of the cells) | 0 | 0 | 0 | 2 (strong activity comprising more than 50% of the cells)
6 | CCN1CCN(CCNCc2cc(-c3ccc4c(c3)OCO4)n(S(=O)(=O)c3ccc(C)cc3)c2)CC1 [Example 15] | > 1000 | > 1000 | > 1000 | – | – | – | 0 | 0 | 0 | 0 | 0 | 0 | 0 | 0
7 | Cc1ccc(S(=O)(=O)n2cc(CNCCN3CCN(Cc4ccccc4)CC3)cc2-c2ccc3c(c2)OCO3)cc1 [Example 16] | > 1000 | > 1000 | > 1000 | – | – | – | 0 | 0 | 0 | 1 (weak activity comprising less than 50% of the cells) | 0 | 0 | 0 | 0
8 | Cc1ccc(S(=O)(=O)n2cc(CNCCN3CCCC3)cc2-c2ccc3c(c2)OCO3)cc1 [Example 17] | > 1000 | > 1000 | > 1000 | – | – | – | 0 | 0 | 0 | 0 | 0 | 0 | 0 | 0
9 | Cc1ccc(S(=O)(=O)n2cc(CNCCN3CCCCC3)cc2-c2ccc3c(c2)OCO3)cc1 [Example 18] | > 1000 | > 1000 | > 1000 | – | – | – | 0 | 0 | 0 | 0 | 0 | 0 | 0 | 0
10 | CCN(CC)CCN(C)Cc1cc(-c2ccc3c(c2)OCO3)n(S(=O)(=O)c2ccc(C)cc2)c1 [Example 19] | > 1000 | > 1000 | > 1000 | – | – | – | 0 | 0 | 0 | 0 | 0 | 0 | 0 | 0
11 | CCN(CC)CCNCc1cc(-c2ccc3c(c2)OCO3)n(S(=O)(=O)c2ccc(C)cc2)c1 [Example 20] | > 1000 | > 1000 | > 1000 | – | – | – | 0 | 0 | 0 | 0 | 0 | 0 | 0 | 0
12 | CCN1CCCC1CNCc1cc(-c2ccc3c(c2)OCO3)n(S(=O)(=O)c2ccc(C)cc2)c1 (stereo not drawn) [Example 21] | > 1000 | > 1000 | > 1000 | – | – | – | 0 | 0 | 0 | 0 | 0 | 0 | 0 | 0
13 | Cc1ccc(S(=O)(=O)n2cc(CNCCCN3CCCC3)cc2-c2ccc3c(c2)OCO3)cc1 [Example 22] | > 1000 | > 1000 | > 1000 | – | – | – | 0 | 0 | 0 | 0 | 0 | 0 | 0 | 0
14 | Cc1ccc(S(=O)(=O)n2cc(CNCCCN3CCN(Cc4ccccc4)CC3)cc2-c2ccc3c(c2)OCO3)cc1 [Example 23] | > 1000 | > 1000 | > 1000 | – | – | – | 0 | 0 | 0 | 0 | 0 | 0 | 0 | 0
15 | Cc1ccc(S(=O)(=O)n2cc(CNC(CN3CCN(C)CC3)c3ccccc3)cc2-c2ccc3c(c2)OCO3)cc1 (stereo not drawn) [Example 24] | > 1000 | – | > 1000 | – | – | – | 0 | 0 | 0 | 0 | 0 | 0 | 0 | 0
16 | Cc1ccc(S(=O)(=O)n2cc(CN(C)C3CCN(Cc4ccccc4)C3)cc2-c2ccc3c(c2)OCO3)cc1 (stereo not drawn) [Example 25] | > 1000 | > 1000 | > 1000 | – | – | – | 0 | 0 | 0 | 1 (weak activity comprising less than 50% of the cells) | 0 | 0 | 0 | 0
17 | Cc1ccc(S(=O)(=O)n2cc(CN(C)C3CCN(C)CC3)cc2-c2ccc3c(c2)OCO3)cc1 [Example 26] | > 1000 | > 1000 | > 1000 | – | – | – | 0 | 0 | 0 | 0 | 0 | 0 | 0 | 0
